System: Mycobacterium tuberculosis variant bovis
Experiment: Antimycobacterial activity against Mycobacterium bovis ATCC 35734 assessed as inhibition of bacterial growth at 128 uM measured after 7 days by luminescence based analysis relative to control
Type: functional
Conditions: ATCC 35734, 168 h, time 7 day

Structure (SMILES)	inhibition at 128 µM
COC(=O)[C@@H](NC(=O)c1ccc(/C=C2\SC(=O)N(CC(=O)NOCc3ccccc3)C2=O)cc1)C(C)C	11.2%
CC(C)[C@H](NC(=O)[C@H](C)NC(=O)c1ccn(CC(=O)NOCc2ccccc2)c1)C(=O)O	10.2%
CC(C)C[C@H](NC(=O)CNC(=O)c1ccn(CC(=O)NOCc2ccccc2)c1)C(=O)O	9.7%
COC(=O)[C@H](CC(C)C)NC(=O)c1cccc(/C=C2\SC(=O)N(CC(=O)NOCc3ccccc3)C2=O)c1	17.2%
CC(C)[C@H](NC(=O)CNC(=O)c1ccn(CC(=O)NOCc2ccccc2)c1)C(=O)O	8.2%
C=CCONC(=O)Cn1cc(C(=O)N[C@@H](C)C(=O)N[C@H](C(=O)O)C(C)C)c2ccccc21	18.5%
COC(=O)[C@@H](NC(=O)c1cccc(/C=C2\SC(=O)N(CC(=O)NOCc3ccccc3)C2=O)c1)C(C)C	7.2%
COC(=O)[C@H](CC(C)C)NC(=O)c1ccc(/C=C2\SC(=O)N(CC(=O)NOCc3ccccc3)C2=O)cc1	14.6%
CC(C)[C@H](NC(=O)CNC(=O)c1cn(CC(=O)NOCc2ccccc2)c2ccccc12)C(=O)O	10.3%
CC(C)C[C@H](NC(=O)CNC(=O)c1cn(CC(=O)NOCc2ccccc2)c2ccccc12)C(=O)O	33.7%
C=CCONC(=O)CN1C(=O)S/C(=C\c2ccc(C(=O)N[C@H](C(=O)OC)C(C)C)cc2)C1=O	10.5%
C=CCONC(=O)Cn1cc(C(=O)N[C@@H](C)C(=O)N[C@@H](CC(C)C)C(=O)O)c2ccccc21	7.7%
C=CCONC(=O)Cn1cc(C(=O)NCC(=O)N[C@@H](CC(C)C)C(=O)O)c2ccccc21	18.3%
CC(C)C[C@H](NC(=O)[C@H](C)NC(=O)c1cn(CC(=O)NOCc2ccccc2)c2ccccc12)C(=O)O	7.2%
CC(C)C[C@H](NC(=O)[C@H](C)NC(=O)c1ccn(CC(=O)NOCc2ccccc2)c1)C(=O)O	25.2%
C=CCONC(=O)CN1C(=O)S/C(=C\c2ccc(C(=O)N[C@@H](CC(C)C)C(=O)OC)cc2)C1=O	11.3%
C=CCONC(=O)Cn1ccc(C(=O)N[C@@H](C)C(=O)N[C@H](C(=O)O)C(C)C)c1	9.3%
C=CCONC(=O)CN1C(=O)S/C(=C\c2cccc(C(=O)N[C@@H](CC(C)C)C(=O)OC)c2)C1=O	9.7%
C=CCONC(=O)Cn1ccc(C(=O)NCC(=O)N[C@@H](CC(C)C)C(=O)O)c1	5.2%
C=CCONC(=O)CN1C(=O)S/C(=C\c2cccc(C(=O)N[C@H](C(=O)OC)C(C)C)c2)C1=O	9.8%
C=CCONC(=O)Cn1cc(C(=O)NCC(=O)N[C@H](C(=O)O)C(C)C)c2ccccc21	15.8%
C=CCONC(=O)Cn1ccc(C(=O)N[C@@H](C)C(=O)N[C@@H](CC(C)C)C(=O)O)c1	7.3%
CC(C)[C@H](NC(=O)[C@H](C)NC(=O)c1cn(CC(=O)NOCc2ccccc2)c2ccccc12)C(=O)O	34.2%
COc1nc2ccc(Br)cc2cc1[C@@H](c1ccccc1)[C@@](O)(CCN(C)C)c1cccc2ccccc12 [BEDAQUILINE]	100%
NNC(=O)c1ccncc1 [ISONIAZID]	100%
CO[C@H]1/C=C/O[C@@]2(C)Oc3c(C)c(O)c4c(O)c(c(/C=N/N5CCN(C)CC5)c(O)c4c3C2=O)NC(=O)/C(C)=C\C=C\[C@H](C)[C@H](O)[C@@H](C)[C@@H](O)[C@@H](C)[C@H](OC(C)=O)[C@@H]1C [RIFAMPIN]	100%

Reference: ChEMBL document CHEMBL5247593, “Novel heterocyclic hydroxamates as inhibitors of the mycobacterial zinc metalloprotease Zmp1 to probe its mechanism of function” (Eur J Med Chem, 2022)
